According to patent US20250113823A1, “Arthropod Control Compositions” (priority 2022, published 2025):

System: Aedes aegypti
Assay: Double (dual) chamber assay, spatial repellence
Format: in vivo
Settings: after 30 min of injection
Procedure: FIG. 1: Percentage of mosquitoes Aedes aegypti escaping over time the chamber treated with a stimulus. The four stimuli were the solvent propan-1,2-diol (grey triangles and dotted line), N,N-diethyl-meta-toluamide (medium grey diamonds), 2,6-dimethoxy-4-methylphenol (light gray squares) and 1,2,3-trimethoxy-5-propylbenzene (black circles). Each stimulus was injected during 40 min thanks to a forced evaporation system in the treated chamber containing the mosquitoes, causing their movement toward the untreated refuge chamber. Each point represents the mean number of mosquitoes in the untreated chamber (n=57, 6, 4 and 4 respectively)±SD at 10 min intervals.
The goal of this assay was to reproduce at a smaller scale the validation test for spatial repellent as described in WHO (2013; ISBN 978 92 4 150502 4).
The assay consists of a transparent cage (1200×755×700 mm; ˜0.63 m^3) covered by white paper. This cage is divided in two chambers of equal dimensions by a plasticized paper wall with square opening (200×200 mm) situated in the middle of the wall. At the beginning of the experiment, about 40 two-weeks old female Aedes aegypti mosquitoes are placed in the right chambers. Once the mosquitoes are settled inside this chamber (>5 min), the door between the chambers is opened. Then the stimulus is introduced into the mosquito chamber through a L-shape Teflon tube (40 mm) placed in the middle of the right Plexiglas wall. The stimulus is dispensed thanks to a Forced Evaporation System (Chappuis et al, 2015, DOI: 10.1021/acs.est.5b00692) at a rate of 0.1 mL/min in a nitrogen flow of 1 L/min, blended in a humid air flow of 9L/min before being carried to the L-shape Teflon tube. An air sucking system (˜150 L/min) is placed above the wall opening, between the two chambers (100 mm Ø), preventing the untreated chamber from being contaminated by the stimulus and limiting the stimulus accumulation in the treated chamber. […] Ten, 20, 30 and 40 minutes after the start of the stimulus injection, the number of mosquitoes that have moved to the untreated chamber is manually counted.

CCCc1cc(OC)c(OC)c(OC)c1 [compound 1975, 1,2,3-trimethoxy-5-propylbenzene]
plateau of mosquitoes moved to the untreated chamber: ~54%
